ChEMBL document CHEMBL1130655, “Nonpeptide oxytocin antagonists: potent, orally bioavailable analogs of L-371,257 containing a 1-R-(pyridyl)ethyl ether terminus” (Bioorg Med Chem Lett, 1998)

Assays:
[1] = Half life period after 3 mg/kg iv administration in the rat; type: ADME, organism-based; parameters: dose 3 mg/kg, route intravenous; settings: in vivo
Rattus norvegicus [2] = species: Rattus norvegicus; assay: Compound was evaluated for its ability to antagonize rat OT-induced uterine contractile response in the vehicle treated group by 50%; type: functional
[3] = Oral bioavailability in rat; type: ADME, organism-based; settings: in vivo
Oxytocin receptor [4] = target: T1, Oxytocin receptor (Homo sapiens, UniProt P30559); assay: Binding affinity against cloned human oxytocin receptor from human embryonic kidney cells; type: cell-based
T1 sequence (P30559 whole entry): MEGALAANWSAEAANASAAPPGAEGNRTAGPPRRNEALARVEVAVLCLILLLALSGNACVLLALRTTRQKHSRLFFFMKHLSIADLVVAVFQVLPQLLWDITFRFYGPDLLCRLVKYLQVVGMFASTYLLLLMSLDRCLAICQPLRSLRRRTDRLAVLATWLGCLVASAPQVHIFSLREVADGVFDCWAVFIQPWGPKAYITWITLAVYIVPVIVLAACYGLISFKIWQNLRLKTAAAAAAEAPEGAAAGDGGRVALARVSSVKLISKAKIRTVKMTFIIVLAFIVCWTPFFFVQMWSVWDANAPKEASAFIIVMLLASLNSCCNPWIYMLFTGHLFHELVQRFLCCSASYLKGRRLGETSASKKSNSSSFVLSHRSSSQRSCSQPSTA

Rattus norvegicus [5] = assay: Maximum plasma concentration after 20 mg/kg oral administration in rat; type: ADME, organism-based; parameters: dose 20 mg/kg, route oral; settings: in vivo
Oxytocin receptor [6] = target: T2, Oxytocin receptor (Rattus norvegicus, UniProt P70536); assay: Binding affinity against oxytocin receptor (rOTr) in DES pretreated rat uterine
T2 sequence (P70536 whole entry): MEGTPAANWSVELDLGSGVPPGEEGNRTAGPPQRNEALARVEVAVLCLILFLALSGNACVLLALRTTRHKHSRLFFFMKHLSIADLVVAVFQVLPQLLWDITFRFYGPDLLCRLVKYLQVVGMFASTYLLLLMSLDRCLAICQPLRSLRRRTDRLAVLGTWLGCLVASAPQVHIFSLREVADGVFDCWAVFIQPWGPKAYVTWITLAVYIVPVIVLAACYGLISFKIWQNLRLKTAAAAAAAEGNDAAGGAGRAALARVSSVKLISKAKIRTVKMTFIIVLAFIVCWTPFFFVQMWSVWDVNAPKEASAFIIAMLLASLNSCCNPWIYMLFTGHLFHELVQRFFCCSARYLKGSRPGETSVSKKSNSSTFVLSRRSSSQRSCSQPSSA

[7] = Half life period after 3 mg/kg iv administration in rat; type: ADME, organism-based; parameters: dose 3 mg/kg, route intravenous; settings: in vivo

Compound | AD50 (Rattus norvegicus [2]) | Ki (Oxytocin receptor [4]) | further results
COc1cc(OC2CCN(C(C)=O)CC2)ccc1C(=O)N1CCC(N2C(=O)OCc3ccccc32)CC1 | 0.55 mg/kg | 9.3 nM | half-life [1]: ~30 min; bioavailability [3]: 39%; Cmax (Rattus norvegicus [5]): 3.3 uM equiv
COc1cc(O[C@H](C)c2cc[n+]([O-])cc2)c(F)cc1C(=O)N1CCC(N2C(=O)OCc3ccccc32)CC1 | 0.78 mg/kg | 7.34 nM | Ki (Oxytocin receptor [6]): 9.9 nM
COc1cc(OC(C)c2ccccc2)ccc1C(=O)N1CCC(N2C(=O)OCc3ccccc32)CC1 (stereo not given) |  |  | half-life [7]: < 30 min
CCOc1ccc(C(=O)N2CCC(N3C(=O)OCc4ccccc43)CC2)c(OC)c1 |  | 15 nM | 
COc1cc(OC(C)c2cccnc2)ccc1C(=O)N1CCC(N2C(=O)OCc3ccccc32)CC1 (stereo not given) | 1.2 mg/kg |  | 
COc1ccc(C(=O)N2CCC(N3C(=O)OCc4ccccc43)CC2)c(OC)c1 |  | 87 nM | Ki (Oxytocin receptor [6]): 120 nM
CCC(Oc1ccc(C(=O)N2CCC(N3C(=O)OCc4ccccc43)CC2)c(OC)c1)c1ccccc1 (stereo not given) |  | 58 nM | 
COc1cc(OC(C)C)ccc1C(=O)N1CCC(N2C(=O)OCc3ccccc32)CC1 |  | 17 nM | 
